In PMC8791944, “GLUT3 inhibitor discovery through in silico ligand screening and in vivo validation in eukaryotic expression systems” (Scientific Reports, 2022):

These compounds were tested against T1, GLUT1 (Homo sapiens, UniProt P11166) (assay: Glucose transport assay, GLUT1 expressed in hxt^0 yeast cells EBY.S7). Conditions: read-out: IC50 for GLUT1 transport inhibition.
T1 construct: expressed in transfected cells; host or cells: Saccharomyces cerevisiae hxt0 strain EBY.S7 (fgy1)
T1 sequence (P11166 1-492): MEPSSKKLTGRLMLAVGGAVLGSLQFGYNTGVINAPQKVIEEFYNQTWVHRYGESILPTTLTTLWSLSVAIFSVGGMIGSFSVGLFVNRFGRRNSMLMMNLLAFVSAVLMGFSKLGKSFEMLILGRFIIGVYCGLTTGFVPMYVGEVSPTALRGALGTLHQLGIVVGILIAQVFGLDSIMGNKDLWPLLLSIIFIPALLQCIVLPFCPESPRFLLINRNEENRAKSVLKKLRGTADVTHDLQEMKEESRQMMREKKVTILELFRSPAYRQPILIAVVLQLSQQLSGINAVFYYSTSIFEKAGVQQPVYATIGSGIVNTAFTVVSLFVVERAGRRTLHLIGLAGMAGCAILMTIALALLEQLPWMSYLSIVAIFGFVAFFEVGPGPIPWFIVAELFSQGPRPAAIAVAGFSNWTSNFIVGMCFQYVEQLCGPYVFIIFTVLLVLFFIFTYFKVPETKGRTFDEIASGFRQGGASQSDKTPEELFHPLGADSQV
Type: cell-based
Excerpt: The most studied GLUTs are Class 1 GLUTs (GLUT1-4) and a Class 2 GLUT, GLUT5 (a fructose-only transporter). GLUT3 sequence homology and identity is 79% and 64%, 71% and 52%, 74% and 57%, and 60% and 38% with GLUT1, GLUT2, GLUT4, and GLUT5, respectively. The hxt^0 yeast cell systems expressing functional GLUT1-4[65],[69] and GLUT5[66] allow us to determine the in vivo transport activity (substrate uptake by a GLUT into whole cells) for individual GLUTs and establish GLUT3 inhibitor selectivity for these transporters. […] Given the higher sequence similarity within Class 1 GLUTs, we expected GLUT3 inhibitors to affect Class 1 GLUTs much more than GLUT5. Indeed, G3iA-G3iF reduced the transport activities of some of the other Class 1 GLUTs (Fig. 3A–C, Table 2, Supplementary Fig. S6). […] For example, G3iB was an equipotent inhibitor of GLUT4, while G3iD and G3iE inhibited GLUT1 in a similar manner to GLUT3. […] Moreover, G3iD affected all Class 1 GLUTs, having the best relative selectivity for GLUT4.
Figure 3 Effect of GLUT3 inhibitors on GLUT1, GLUT2, GLUT4, and GLUT5. The transport activity was assayed as the substrate uptake in hexose transporter-deficient yeast cells expressing functional GLUT1[65], GLUT2[69], GLUT4[65], or GLUT5[66]. […] Transport assay was initiated by the addition of C^14-labeled substrate and stopped after 10 min (see “Materials and methods” for details). (A–D) Effect of G3iA-G3iF, at 50 µM concentration, on the relative transport activities of GLUT1 (A), GLUT2 (B), GLUT4 (C), and GLUT5 (D). Standard deviations for experimental points come from at least three independent measurements.
The plasmids containing functional constructs of GLUT1-5 were transformed in the corresponding hxt^0 strains[65],[66],[73] (EBY.VW4000 for GLUT5S72Y, EBY.S7 for GLUT1, GLUT2∆loopS_Q455R, GLUT3 and GLUT3S66Y, and SDY.022 for GLUT4) and grown on 2% (w/v) agar plates of the respective media supplemented with 1% (w/v) maltose. An initial culture of ~ 10 ml was started with a few colonies and grown for 2–3 days if the media was SC-uracil with 1% (w/v) maltose (GLUT1, GLUT3, GLUT4) or 1–2 days if the media was YEP with 1% (w/v) maltose and 100 µg/ml geneticin G418 (GLUT2∆loopS_Q455R and GLUT5S72Y). […] Then, cells were transferred in the same media so that OD600nm ~ 0.5 and grown further for 1–2 days.
For transport activity assay, cells in the hexose media were centrifuged (1000×g, 5 min, room temperature), washed once with PBS buffer (10 mM Na2HPO4, 1.8 mM KH2PO4, 2.7 mM KCl, 137 mM NaCl, pH 7.4), and resuspended in PBS buffer at an OD600nm ~ 10; each assay contained 100 µl of this cell solution. […] Substrate uptake into cells was linear for more than 20 min. […] The filtration membranes were transferred into scintillation vials with 10 ml of Scintillation Solution (BioSafeII; Research Products International, Mount Prospect, IL, USA), and vortexed briefly. The radioactivity was determined with a scintillation counter (Tri-carb 2900TR, Perkin Elmer, USA). As all compounds were solubilized in dimethyl sulfoxide (DMSO), controls for determining the relative transport activity included 1% (v/v) DMSO to represent DMSO used as vehicle control (i.e., 100% activity), and known inhibitors at saturating concentrations, 200 µM phloretin for GLUT1-4[69],[82], and 100 µM N-[4-(methylsulfonyl)-2-nitrophenyl]-1,3-benzodioxol-5-amine (MSNBA) for GLUT5 (i.e., complete inhibition). […] Data were analyzed with GraphPad Prism (San Diego, CA, USA).
Supplementary Figure S6. Dose response curves for GLUT3 inhibitors on the transport activities of GLUT1, GLUT2, and GLUT4 in hxt^0 yeast cells. Dose response curves for GLUT3 inhibitors in GLUT1 (top row), GLUT2 (middle row), and GLUT4 (bottom row). […] Error bars represent standard deviations from at least three independent measurements. Graphs, data analysis, and IC50 values were generated with GraphPad (www.graphpad.com).
CC(=O)Nc1ccc(S(=O)(=O)Nc2ccc(Nc3cc(N(C)C)nc(C)n3)cc2)cc1 [G3iA, N-(4-{[(4-{[6-(dimethylamino)-2-methylpyrimidin-4-yl]amino}phenyl)amino]sulfonyl}phenyl)acetamide] gave an IC50 greater than 50 µM.
COc1ccccc1-n1c(/C=C/c2ccc(O)cc2)nc2ccc(Br)cc2c1=O [G3iB, 6-bromo-2-[(E)-2-(4-hydroxyphenyl)ethenyl]-3-(2-methoxyphenyl)quinazolin-4(3H)-one] gave an IC50 of 25 ± 8.6 µM.
Cc1cccnc1OC1CCN(c2cc(N3CCCC3CO)ncn2)CC1 (stereo not drawn) [G3iC] was tested, and the IC50 was 49.4 ± 6.7 µM.
Cc1cc(NC(=O)CCC2Cc3ccccc3NC2=O)nc(-c2ccccc2)n1 (stereo not drawn) [G3iD] was tested, and the IC50 was 17.7 ± 2.3 µM.
For O=C(Nc1cccc(Cl)c1)c1cccc(NC(=O)c2cccc([N+](=O)[O-])c2)c1 [G3iE, N-{3-[(3-chloroanilino)carbonyl]phenyl}-3-nitrobenzamide], the IC50 was 22.4 ± 3.7 µM.
Cc1ccccc1CN(Cc1nnc(C(C)(C)C)o1)c1ccc2nc(O)[nH]c2c1 [G3iF] showed an IC50 greater than 50 µM.
